The values below come from patent publication US8748435B2, “Pyrazolo pyrimidine derivatives” (Novartis AG, priority 2011, dated 2014).

Where a name gives a salt, the structure may show the parent alone.

In assay [1] the target is T1, human GPR4 (Homo sapiens (Human), UniProt P46093). As to the kind of experiment: Human GPR4 binding assay with additional human serum albumin (4% HSA). As to conditions: binding assay with 4% HSA. Here is the method:
(§1) Cells were grown in T175 flasks to a density of about 1×10^6 cells/mL in growth medium. The cells were harvested by centrifugation (3000 rpm for 30 minutes at 4° C.) and the pellet resuspended in ice cold buffer A (20 mM HEPES pH 7.8, 10 mM EDTA, 100 mM NaCl, 1 tab/40 mL protease inhibitor complete). […] The homogenate was centrifuged at 18000 rpm for 50 min at 4° C. and the membrane protein pellet resuspended in cold buffer A using the Polytron (2×20 seconds). The protein concentration is determined using the Bio Rad Protein Assay and human IgG as standard. The volume of the membrane protein suspension is adjusted to a final concentration of about 2 mg protein/mL. The suspension is then once again homogenized (Polytron) on ice at 25000 rpm for 20 seconds before being aliquoted and stored at −80° C.
(§2) Radio Ligand Binding Assay: Serial dilutions of compounds (stock in 10 mM DMSO) are prepared by first diluting the compounds in DMSO followed by a 1:50 dilution into assay buffer (10 mM HEPES, pH 8.0, 100 mM NaCl, 5 mM MgCl2, 1 mM CaCl2, 0.5% fatty acid-free BSA, 0.05% Tween-20). […] The desired amount of membranes (20 μg/well) is diluted with assay buffer. […] 100 μL of the membrane-suspension is added and the plate stirred for 60 minutes. […] The filter plate is washed 5 times with ice-cold wash buffer, dried and sealed at the bottom. Then 20 μL of Microscint 40 is added into each well and the top of the plate is sealed. Finally the plate is counted for 2 min/well in a TopCount NXT instrument (Packard Instruments). The data are analyzed using the GraphPad Prism™ software.
In a similar manner, a binding assay with additional human serum albumin (4% HSA) has been established.

For the next assay, the target named is Human H3 (Homo sapiens (Human), UniProt Q9Y5N1). The experiment in a line: Human H3 binding assay (SPA, [3H]-R-alpha-Methylhistamine). Conditions: 3 nM [3H]-R-alpha-Methylhistamine. Here is the method:
c) Human H3 Binding Assay
The Scintillation Proximity Binding Assay (SPA) assay was performed in a final volume of 50 μL per well in a 384-well polystyrene plate.
The final concentration of the radioligand was 3 nM. • 20 μL of a beads (PVT-WGA type A) and membranes mixed suspension in assay buffer, in order to get a final concentration of 10 μg/well of membranes and 200 μg/well of beads. As an example, 1471 μL membranes (Conc.: 5.1 mg/mL) and 1500 μL of bead suspension (Conc.: 100 mg/mL) are diluted to a final volume of 15 mL of assay buffer.
The plates were sealed and shaken at room temperature, then allowed to stand at room temperature for at least 1 hour. The plates were counted using a Perkin Elmer TopCount reader, each well being counted for 1 minute.

Assay [2] concerns the target T1, human GPR4. The experiment in a line: Cell-based assay for human GPR4 activity (pH-induced cAMP formation, HTRF, HeLa cells). As to conditions: HeLa cells stably expressing human GPR4, pH-induced cAMP. Here is the method: b) Cell-Based Assay for Human GPR4 Activity
(§3) HeLa cells stably expressing human GPR4 were established by transfecting the cells with a construct containing the human GPR4 coding sequence. The cells were grown in Dulbecco's Modified Eagle Medium (DMEM)/HAM's tissue culture medium F12 (HAM's F12) supplemented with 10% fetal calf serum (FCS), 100 u/ml penicillin, 100 μg/ml streptomycin and 400 μg/ml G418 and 10 mM Hepes pH 8.0. pH-induced formation of cAMP was determined using the homogeneous time resolved fluorescence (HTRF) technology as provided by CisBio Inc. The cells were seeded in 384-well plates and cultured for 24 hours at 37° C., 5% CO2 before performing the assay. Medium was removed and 10 μl buffer A (Hepes buffered saline (HBS), 10 mM Hepes, pH 8, 2 mM 3-Isobutyl-1-methylxanthin (IBMX)) was added. For compound testing, buffer A with 2× concentrated compounds was used. Cells were incubated for 15 min at room temperature. 10 μl buffer B (HBS, 30 mM Hepes, specific pH) was added to reach the appropriate final pH for stimulation (see below) and incubation was continued for 15 min at room temperature. […] HBS: 130 mM NaCl, 0.9 mM NaH2 PO4, 5.4 mM KCl, 0.8 mM MgSO4, CaCl2 1.8 mM, 25 mM glucose, 10-30 mM Hepes. Adjustment of HBS buffers:
(§4) Compounds were diluted from fresh stock solutions at 10 mM in DMSO to 2 mM and then used for serial dilutions in DMSO.
For orientation: cAMP levels reflect the balance of adenylyl cyclase and phosphodiesterase activity.

The target of assay [3] is T1, human GPR4. The experiment in a line: Human GPR4 binding assay ([3H]4 radioligand, membranes of 300.19 cells expressing human GPR4). Here is the method:
a) Human GPR4 Binding Assay
as §1, §2

A further assay addresses rat GPR4 (Rattus norvegicus (Rat), UniProt Q4KLH9). The experiment in a line: Rat GPR4 cAMP assay. As to conditions: read-out: r cAMP IC50. The assay is classed as cell-based. Here is the method: as §3, §4
(§5) In a similar manner, assays for the mouse (m) and rat (r) GPR4 receptors have been established.

Assay [4] deals with antigen-induced arthritis (knee swelling). The experiment in a line: Rat antigen-induced arthritis model. As to conditions: oral gavage, AUC of R/L knee swelling ratio vs control. In kind it is in vivo. Here is the method: e) GPR4 Activity in Rat Antigen-induced Arthritis Model Female Lewis rats were sensitised intradermally on the back at two sites to methylated bovine serum albumin (mBSA) homogenised 1:1 with complete Freund's adjuvant on days −21 and −14 (0.1 ml containing 1 mg/ml mBSA). On day 0, the right knee received […] of 10 mg/ml mBSA in 5% glucose solution (antigen injected knee), while the left knee received […] of 5% glucose solution alone (vehicle injected knee). The diameters of the left and right knees were then measured using calipers immediately after the intra-articular injections and again on days 2, 4 and 7. The compounds of the invention were administered twice daily by oral gavage; vehicle (saline) at 5 ml/kg, and dexamethasone at 0.3 mg/kg was given as a control. Right knee swelling was calculated as a ratio of left knee swelling, and the R/L knee swelling ratio plotted against time to give Area Under the Curve (AUC) graphs for control and treatment groups. The percentage inhibition of the individual treatment group AUCs were calculated vs the control group AUC (0% inhibition).

The next assay concerns the target mouse GPR4 (Mus musculus (Mouse), UniProt Q8BUD0). The experiment in a line: Mouse GPR4 cAMP assay. The assay is classed as cell-based. Here is the method: as §3, §4, §5
In another assay the test system is CFA-induced hyperalgesia. The experiment in a line: Established rat hyperalgesia model (CFA). The assay is classed as in vivo. As to conditions: gavage. Here is the method:
f) Established Rat Hyperalgesia Model
Naïve withdrawal thresholds of both hind paws were determined by using an increasing pressure stimulus placed onto the dorsal surface of each paw using an analgesymeter. Delayed inflammatory pain was then induced by intra-plantar injection of 25 μl of complete Freund's adjuvant (CFA) into one hindpaw with the contralateral paw acting as the control. […] One hour later, paw withdrawal thresholds were re-measured on both the ipsilateral (CFA-injected) and contralateral (uninjected) paw; measurements were repeated at 3 hrs and 6 hrs post dosing. The reversal of hyperalgesia was calculated using the following formula: Reversal (%)=100×(postdose ipsilateral threshold−predose ipsilateral threshold) (naïve ipsilateral threshold−predose ipsilateral threshold).

[5] abbreviates: radioligand [3H]4 (example 39), membranes of 300.19 cells expressing human GPR4.

mouse GPR4, sequence (Q8BUD0 whole entry): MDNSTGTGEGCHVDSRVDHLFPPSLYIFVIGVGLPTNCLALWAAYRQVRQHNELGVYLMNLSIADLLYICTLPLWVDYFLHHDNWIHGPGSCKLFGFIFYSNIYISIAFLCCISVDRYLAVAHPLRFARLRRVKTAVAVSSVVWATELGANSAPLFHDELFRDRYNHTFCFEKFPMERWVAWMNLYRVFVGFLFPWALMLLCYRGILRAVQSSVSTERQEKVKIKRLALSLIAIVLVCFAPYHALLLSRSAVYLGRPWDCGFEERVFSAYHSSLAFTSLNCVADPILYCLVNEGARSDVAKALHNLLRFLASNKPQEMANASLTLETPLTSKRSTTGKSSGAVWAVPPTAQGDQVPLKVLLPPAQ
Human H3, sequence (Q9Y5N1 whole entry): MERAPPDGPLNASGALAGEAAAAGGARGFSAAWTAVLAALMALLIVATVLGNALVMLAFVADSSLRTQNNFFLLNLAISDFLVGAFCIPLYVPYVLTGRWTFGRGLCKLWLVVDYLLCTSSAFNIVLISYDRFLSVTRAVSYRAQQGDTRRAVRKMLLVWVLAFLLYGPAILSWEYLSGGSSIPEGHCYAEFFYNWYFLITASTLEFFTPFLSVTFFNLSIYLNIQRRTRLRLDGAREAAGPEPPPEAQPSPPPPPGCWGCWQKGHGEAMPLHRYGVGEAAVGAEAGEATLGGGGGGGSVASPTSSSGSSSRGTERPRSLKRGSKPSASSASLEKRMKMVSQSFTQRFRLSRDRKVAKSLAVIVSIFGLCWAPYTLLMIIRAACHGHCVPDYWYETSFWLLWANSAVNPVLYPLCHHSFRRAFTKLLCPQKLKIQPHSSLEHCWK
T1 sequence (P46093 whole entry): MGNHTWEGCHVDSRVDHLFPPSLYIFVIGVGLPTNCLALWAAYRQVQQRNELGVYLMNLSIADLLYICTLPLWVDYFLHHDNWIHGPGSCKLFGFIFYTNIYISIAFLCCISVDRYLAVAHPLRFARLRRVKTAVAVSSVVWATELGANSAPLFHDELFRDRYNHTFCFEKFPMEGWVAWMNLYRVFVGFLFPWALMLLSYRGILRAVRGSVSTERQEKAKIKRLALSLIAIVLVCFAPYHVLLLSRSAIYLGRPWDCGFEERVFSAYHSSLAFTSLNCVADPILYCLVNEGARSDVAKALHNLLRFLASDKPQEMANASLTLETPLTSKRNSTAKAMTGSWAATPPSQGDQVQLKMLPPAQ
rat GPR4, sequence (Q4KLH9 whole entry): as the sequence (Q8BUD0 whole entry) above, with G8W, H51R, S339T counted along it

On to `CCc1nn2c(C)cc(C)nc2c1Cc1ccc(-n2cc(CN3CCNCC3)cn2)cc1` [Example 31, 2-Ethyl-5,7-dimethyl-3-[4-(4-piperazin-1-ylmethyl-pyrazol-1-yl)-benzyl]-pyrazolo[1,5-a]pyrimidine], for which the IC50 (as a rule, the point on the concentration scale where inhibition reaches its midpoint) on human GPR4 [1] was 61 nM; at Human H3 it was over 30000 nM; against human GPR4 [2], 53 nM; at human GPR4 [3] (setting [5]) it was 43 nM; at rat GPR4, 1330 nM; against mouse GPR4, 511 nM. Besides, the Inhibition of swelling in assay [4] (30 mg/kg bid) was 24%; in assay [4] (60 mg/kg bid) it was 38%.
For the compound `CCc1nn2c(C)cc(C)nc2c1Cc1ccc(/C=C/CN2CCN(C[C@@H](O)CO)CC2)cc1.Cl.Cl` [Example 17, (R)-3-(4-{(E)-3-[4-(2-Ethyl-5,7-dimethyl-pyrazolo[1,5-a]pyrimidin-3-ylmethyl)-phenyl]-allyl}-piperazin-1-yl)-propane-1,2-diol dihydrochloride], the “% reversal of hyperalgesia” value in the assay on CFA-induced hyperalgesia (3 mg/kg, 1 h) worked out at 28%; in the assay with CFA-induced hyperalgesia (3 mg/kg, 3 h) it was 18%; in the assay with CFA-induced hyperalgesia (3 mg/kg, 6 h), 3%; in the assay with CFA-induced hyperalgesia (10 mg/kg, 1 h), 36%; in the assay with CFA-induced hyperalgesia (10 mg/kg, 3 h), 29%; in the assay with CFA-induced hyperalgesia (10 mg/kg, 6 h) it was 7%. For the same compound, the “% reversal of hyperalgesia” value with CFA-induced hyperalgesia (30 mg/kg, 1 h) was 55%; with CFA-induced hyperalgesia (30 mg/kg, 3 h) it was 32%; with CFA-induced hyperalgesia (30 mg/kg, 6 h), 15%. In addition, the Inhibition of swelling in assay [4] (30 mg/kg bid) was found to be 36%.
Consider `CCc1nn2c(C)cc(C)nc2c1Cc1ccc(-n2cc(CN3CC(N)C3)cn2)cc1` [Example 29, 1-{1-[4-(2-Ethyl-5,7-dimethyl-pyrazolo[1,5-a]pyrimidin-3-ylmethyl)-phenyl]-1H-pyrazol-4-ylmethyl}-azetidin-3-ylamine], for which the IC50 at human GPR4 [1] was 30 nM; on Human H3, over 30000 nM; against human GPR4 [2] it was 36 nM; on human GPR4 [3] (setting [5]) it was 21 nM; on rat GPR4 it was 430 nM; against mouse GPR4, 211 nM.
Turning to `CCc1nn2c(C)cc(C)nc2c1Cc1ccc(/C=C/CC2(O)CCN(C(=O)CNC)CC2)cc1` [Example 7, 1-(4-{(E)-3-[4-(2-Ethyl-5,7-dimethyl-pyrazolo[1,5-a]pyrimidin-3-ylmethyl)-phenyl]-allyl}-4-hydroxy-piperidin-1-yl)-2-methylamino-ethanone hydrochloride], the IC50 on human GPR4 [1] is 56 nM; at Human H3, over 30000 nM; at human GPR4 [2] it was 33 nM; at human GPR4 [3], 34 nM; at rat GPR4, 1720 nM; against mouse GPR4, 253 nM.
Consider `CCc1nn2c(C)cc(C)nc2c1Cc1ccc(/C=C/C[C@]2(O)CCN[C@@H](C)C2)cc1` [Example 5, (2S,4S)-4-{(E)-3-[4-(2-Ethyl-5,7-dimethyl-pyrazolo[1,5-a]pyrimidin-3-ylmethyl)-phenyl]-allyl}-2-methyl-piperidin-4-ol], for which the 50% inhibitory concentration (IC50) at human GPR4 [1] was 11 nM; at Human H3, over 30000 nM; against human GPR4 [2] it was 17 nM; at human GPR4 [3] (setting [5]) it was 15 nM; at rat GPR4, 162 nM; against mouse GPR4 it was 70 nM.
As for `CCc1nn2c(C)cc(C)nc2c1Cc1ccc(OCCN2CCN[C@@H](COC)C2)cc1` [Example 27, 2-Ethyl-3-{4-[2-((R)-3-methoxymethyl-piperazin-1-yl)-ethoxy]-benzyl}-5,7-dimethyl-pyrazolo[1,5-a]pyrimidine], the half-inhibitory concentration (IC50) on human GPR4 [1] was 81 nM; at Human H3, over 30000 nM; against human GPR4 [2] it was 64 nM; on human GPR4 [3] (setting [5]) it was 59 nM; at rat GPR4, 2630 nM; at mouse GPR4, 507 nM.
With `CCc1nn2c(C)cc(C)nc2c1Cc1ccc(/C=C/CN2CCN[C@@H](CN(C)C)C2)cc1` [Example 13, ((S)-4-{(E)-3-[4-(2-Ethyl-5,7-dimethyl-pyrazolo[1,5-a]pyrimidin-3-ylmethyl)-phenyl]-allyl}-piperazin-2-ylmethyl)-dimethyl-amine trihydrochloride], the half-inhibitory concentration (IC50) on human GPR4 [1] turned out to be 7 nM; at Human H3, 4900 nM; against human GPR4 [2], 68 nM; on human GPR4 [3] it was 7 nM; on rat GPR4 it was 1690 nM; on mouse GPR4 it was 388 nM.
As to `CCc1nn2c(C)cc(C)nc2c1Cc1ccc(-n2cc(CN3CC(O)C3)cn2)cc1` [Example 28, 1-{1-[4-(2-Ethyl-5,7-dimethyl-pyrazolo[1,5-a]pyrimidin-3-ylmethyl)-phenyl]-1H-pyrazol-4-ylmethyl}-azetidin-3-ol], the IC50 on human GPR4 [1] stood at 180 nM; on Human H3 it was 20000 nM; against human GPR4 [2] it was 49 nM; at human GPR4 [3] (setting [5]) it was 118 nM; at rat GPR4, 2300 nM; at mouse GPR4, 687 nM. Also, the Inhibition of swelling in assay [4] (90 mg/kg bid) was 25%.
`CCc1nn2c(C)cc(C)nc2c1Cc1ccc(OC[C@H]2CC[C@@H](N)CC2)cc1` [Example 23, 4-[4-(2-Ethyl-5,7-dimethyl-pyrazolo[1,5-a]pyrimidin-3-ylmethyl)-phenoxymethyl]-cyclohexylamine]: the IC50 was 19 nM on human GPR4 [1]; over 30000 nM on Human H3; 21 nM against human GPR4 [2]; 1410 nM at rat GPR4; 262 nM at mouse GPR4. Also, the Inhibition of swelling in assay [4] (30 mg/kg bid) amounted to 24%.
